Results on one molecule are retold here after patent publication US8835644B2, “Broad spectrum benzothiophene-nitrothiazolide and other antimicrobials” (University of Virginia Patent Foundation, priority 2009, dated 2014).

Molecules are shown by their SMILES. Converted amounts (≈) assume the structure as drawn. Like-named read-outs stand apart in the source and are kept apart here.

Experiment [1] has as its system C. jejuni. Nature of the experiment: MIC testing by broth dilution, C. jejuni. It counts as cell-based, Campylobacter jejuni. A digest of the protocol: (§1)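 Media: LB (E. coli), Trypticase Soy (S. epidermidis), BHI (C. jejuni); plank cells. C. difficile on Wilkins Chalgrin agar, anaerobic Kirby-Bauer disks, zone vs NTZ zone ratio.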
In general terms: Dilution methods test growth across graded concentrations, often in twofold steps.

Experiment [2] has as its system S. epidermidis. Nature of the experiment: MIC testing by broth dilution, S. epidermidis plank. The experiment is classed as cell-based, Staphylococcus epidermidis. A digest of the protocol: as §1
Experiment [3] deals with S. epidermidis biofilm. Nature of the experiment: S. epidermidis biofilm assay (activity tables). It counts as cell-based, Staphylococcus epidermidis. A digest of the protocol:
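Overnight TSB cultures diluted to OD600 0.01 and grown static with compound (triplicate) at 37° C for 16 h; turbidity recorded for growth. Biofilm: washed wells ethanol-fixed, stained with 0.5% crystal violet, A570 read before and after 95% ethanol extraction; mean ± SD.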

For experiment [4], the system named is PFOR (pyruvate ferredoxin oxidoreductase). Nature of the experiment: Direct PFOR enzyme assay. The experiment is classed as biochemical.
Experiment [5] has as its system S. epidermidis strain 9142. Nature of the experiment: Effect of zinc on the action of NTZ (biofilm and MIC). The following applies: zinc 20 μM, read at 8 h. The experiment is classed as cell-based, Staphylococcus epidermidis. The method, then: […] As a control, ZnCl2 was added to untreated bacteria. Additional controls included testing of 10 μM CaCl2 and MgCl2 in the same format. The inhibitory effect of EDTA on biofilm production and its reversibility by Zn^2+ was also assessed as described for NTZ.

Experiment [6] deals with aggR and aafA transcripts of EAEC 042. Nature of the experiment: qRT-PCR of aggR, aafA and rpoS. The experiment is classed as cell-based, Escherichia coli. The following applies: EAEC 042, MinA-G. The method, then:
EAEC 042 was grown overnight in MinA-G medium and then diluted to a starting OD600 of 0.05 in three 50 ml MinA-G cultures with 0, 10, and 25 μg/ml NTZ. Bacterial cells were grown with shaking until the cultures reached an OD600 of ˜0.4 and were harvested by centrifugation at 4° C. The pellets were resuspended in 200 μl TE buffer, transferred to polystyrene round bottom 14 ml tubes, and total RNA was extracted by the TES-hot phenol method as previously described (15). The RNA was re-precipitated and washed two times with 500 μl 70% DEPC ethanol to remove any remaining salts. The pellets were dried at 37° C. and suspended in 100 μl DEPC water. RNA concentration was determined with a Nanoprop ND-1000 UV-Vis Spectrophotometer. RNA yields were typically in the 1.6-3.2 μg/μl range. Residual DNA was removed by treatment with TURBO DNase and stored at −80° C. (15).
Primers for real-time qRT-PCR were designed to yield approximately 150 base pair amplicons for the virulence genes aggR and aafA and for the stringent response gene rpoS, which served as an internal control. SuperScript™ II Reverse Transcriptase (Invitrogen) was used to synthesize first-strand cDNA from 1 μg purified RNA with 100 ng random primers (Invitrogen). RNA, random primers, and dNTPs (0.5 mM final concentration) were mixed, heated for 65° C. for 5 min, centrifuged briefly, and quick chilled on ice. […]

As to `CC(=O)Oc1ccccc1C(=O)Nc1ncc([N+](=O)[O-])s1` [Nitazoxanide, 2-(acetyloxy)-N-(5-nitro-2-thiazolyl)benzamide, reference compound], the minimum inhibitory concentration (MIC) – broadly, the smallest concentration in the dilution series that meets the test's criterion for growth inhibition – is 39.1 µM (≈ 12 µg/mL) in experiment [1] (2-amino-3,5-dinitrothiophene analogues table, read-out: MIC C. jejuni); 39.1 µM (≈ 12 µg/mL) in experiment [1] (Campylobacter jejuni, Furan analogues table, read-out: MIC C. jejuni); 39.1 µM (≈ 12 µg/mL) in experiment [1] (Campylobacter jejuni, broth dilution, Brain Heart Infusion, 24 h, read-out: MIC (μM) C. jejuni); 39.1 µM (≈ 12 µg/mL) in experiment [1] (Thiophene analogues table, read-out: MIC C. jejuni); 52.1 µM (≈ 16 µg/mL) in experiment [2] (Staphylococcus epidermidis, broth dilution, Trypticase Soy, 24 h, read-out: MIC (μM) S. epidermidis Plank); 52.1 µM (≈ 16 µg/mL) in experiment [2] (planktonic, 2-amino-3,5-dinitrothiophene analogues table, read-out: MIC S. epidermidis Plank). The MIC in experiment [2] (planktonic, Thiophene analogues table, read-out: MIC S. epidermidis Plank) turned out to be 52.1 µM (≈ 16 µg/mL). Further, the “MIC (μM) S. epidermidis Biofilm” value in experiment [3] amounted to 32.5 µM (≈ 9.99 µg/mL). For the same molecule, the “MIC S. epidermidis Biofilm” value in experiment [3] (2-amino-3,5-dinitrothiophene analogues table), in experiment [3] (Furan analogues table) and in experiment [3] (Thiophene analogues table) was 32.5 µM (≈ 9.99 µg/mL) throughout. Further, the “PFOR inhibition relative to nitazoxanide (=100)” value is listed as 100% in experiment [4]; 100% in experiment [4] (* biphasic initial inhibition followed by uninhibited rate, ** caused some precipitant in extract); 100% in experiment [4] (Furan analogues table); 100% in experiment [4] (Thiophene analogues table). For the same molecule, the “Effect of Zn2+ on the growth inhibitory action (MIC)” value in experiment [5] is listed as “no effect”. In addition, the “Increase in aggR transcript levels over untreated controls” value in experiment [6] is on record as ~10 fold. In addition, in experiment [6], the aafA expression entry is “unaffected”.
